2 compounds from US20240238288A1, “ALDOSE REDUCTASE INHIBITORS FOR TREATING SORBITOL DEHYDROGENASE DEFICIENCY” (APPLIED THERAPEUTICS, INC., priority 2020, published 2024) can be followed below.

This experiment concerns fibroblasts from patients with SDH deficiency (biallelic c.757delG). Nature of the experiment: Sorbitol levels in human fibroblasts from patients with sorbitol dehydrogenase deficiency treated with aldose reductase inhibitors. It counts as cell-based. To be noted: for reduction of sorbitol levels in comparison to vehicle control: 72 hours, SDH-deficient patient fibroblasts, sorbitol by UPLC-MS/MS normalized to protein; for sorbitol levels in SORD fibroblasts (FIG. 1 legend): FIG. 1 histogram, SORD patient fibroblasts. The method, then:
Fibroblasts were obtained from skin biopsy of normal human volunteers or patients with confirmed sorbitol dehydrogenase deficiency (biallelic c.757delG). Fibroblasts were cultured in triplicate in Dulbecco's modified Eagle's medium (ThermoFisher) supplemented with 10% fetal bovine serum, penicillin and streptomycin (Gibco). Cells were grown in 5% CO2 at 37° C. in a humidified incubator. Asynchronous cell cultures were grown to approximately 80% confluency, and then treated with vehicle, Compound A (100 uM) or Compound B (10 uM) for 72 hours. Th media containing vehicle, Compound A or Compound B, was changed every 24 hours.
Sorbitol and protein were determinated from lysates of human fibroblasts. For protein measurements, fibroblasts were collected and lysed in RIPA buffer (ThermoFisher) containing protease inhibitors (Roche) and sonicated for 5 minutes using a Bioruptor sonication device (Diagenode). Protein quantification was conducted using a Coomassie assay. For sorbitol determination, a UPLC-tandem mass spectrometry (MS/MS) (Waters Acquity UPLC & TQD mass spectrometer) was used, fibroblasts were collected and lysed in RIPA buffer (ThermoFisher) and sonicated for 5 minutes using a Bioruptor sonication device (Diagenode). Cell lysates were centrifuged 13,000 g for 10 minutes at 4° C., and the supernatants were collected for protein quantification and sorbitol measurement. For Sorbitol measurements, the lysate underwent protein precipitation with acetonitrile (1:5), tenfold dilution with acetonitrile/water (50:50) and cleanup on Oasis HLB cartridges (10 mg/ml), before injection (3 ul) into the UPLC system. The UPLC conditions were as follows: column: BHE amid 1.7 um (2.1×100 mm) at 88° C.; eluent A: acetonitrile 90%/water 5%/isopropanol 5%; eluent B: acetonitrile 80%/water 20%; gradient elution, 0 minutes 100% A to 3.6 minutes 100% B; flow rate of 0.45 ml/minute. The retention time of sorbitol was 2.7 minutes. The linearity of the method was assessed between 0.25 and 50 mgl^−1. The MS/MS conditions were as follows: interface, electrospray interface in negative ion mode; multiple reaction monitory acquisition, m z 180.0-88.9 (CV 24, CE 15). The detection limit (signal-to-noise ration=3) was 0.03 mgl^−1. Sorbitol levels were normalized to protein concentration.

For `O=C(O)Cc1nn(Cc2nc3cc(C(F)(F)F)ccc3s2)c(=O)c2nccnc12` [Compound A], the “sorbitol levels in SORD fibroblasts (FIG. 1 legend)” value is “reduces sorbitol levels”. Moreover, the “reduction of sorbitol levels in comparison to vehicle control” value (100 uM) is given as 78%.

On to `O=C(O)Cc1nn(Cc2nc3cc(C(F)(F)F)ccc3s2)c(=O)c2cscc12` [Compound B], for which the “sorbitol levels in SORD fibroblasts (FIG. 1 legend)” value is listed as “reduces sorbitol levels”. Further, where the note is “10 uM”, the “reduction of sorbitol levels in comparison to vehicle control” value was determined as 75%.
